Source: the supplement of paper PMC10307832

Experiments:
Assay in all cases: relative viability (nuclei count vs DMSO), 5 days (fraction); higher = more cells survive
[1] = tested on: ABC-1
Method in brief: (§1)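 A single step with final 0.05% Triton X-100, 1% formaldehyde and 1 ug/ml Hoechst fixed the cells and stained nuclei 5 days after treatment. Lung cancer cell lines in 1536-well plates had been treated by pin tool the day after seeding with one drug alone or a fixed anchor-drug dose plus five library-drug doses (not always all listed) in √10 steps, and nuclei were counted on 4× images. Relative viability is the ratio of nuclei in treated wells to nuclei in vehicle wells, taken as the median of duplicate plates.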

[2] = tested on: CAL-12T
Method in brief: as §1

[3] = tested on: COR-L 105
Method in brief: as §1

[4] = tested on: EMC-BAC-2
Method in brief: as §1

[5] = tested on: EPLC-272H
Method in brief: as §1

[6] = tested on: HCC-15
Method in brief: as §1

[7] = tested on: HCC-78
Method in brief: as §1

[8] = tested on: HOP-62
Method in brief: as §1

[9] = tested on: LXF-289
Method in brief: as §1

[10] = tested on: NCI-H1666
Method in brief: as §1

[11] = tested on: NCI-H1755
Method in brief: as §1

[12] = tested on: NCI-H1915
Method in brief: as §1

[13] = tested on: NCI-H1975
Method in brief: as §1

[14] = tested on: NCI-H2023
Method in brief: as §1

[15] = tested on: NCI-H2085
Method in brief: as §1

[16] = tested on: NCI-H2126
Method in brief: as §1

[17] = tested on: NCI-H3122
Method in brief: as §1

[18] = tested on: NCI-H322M
Method in brief: as §1

[19] = tested on: NCI-H358
Method in brief: as §1

[20] = tested on: NCI-H441
Method in brief: as §1

[21] = tested on: UMC-11
Method in brief: as §1

`CCN(CC)CCCCNc1ncc2cc(-c3cc(OC)cc(OC)c3)c(NC(=O)NC(C)(C)C)nc2n1` + C[C@]1(O)C[C@@H](c2nc(-c3ccc4ccc(-c5ccccc5)nc4c3)c3c(N)nccn32)C1 [Linsitinib] (partner 1 µM) gave a relative viability ([1]; first compound 0.01 µM) of 0.915, a relative viability ([1]; first compound 0.03162 µM) of 0.809 and a relative viability ([1]; first compound 0.1 µM) of 0.88. The relative viability ([1]; first compound 0.3162 µM) was 0.838, the relative viability ([1]; first compound 1 µM) was 0.722 and the relative viability ([2]; first compound 0.01 µM) was 0.873. It also gave a relative viability ([2]; first compound 0.03162 µM) of 0.954, a relative viability ([2]; first compound 0.1 µM) of 0.729 and a relative viability ([2]; first compound 0.3162 µM) of 0.906. The relative viability ([2]; first compound 1 µM) was 0.844, the relative viability ([3]; first compound 0.01 µM) was 1.1 and the relative viability ([3]; first compound 0.03162 µM) was 0.794. The relative viability ([3]; first compound 0.1 µM) was 1.02, the relative viability ([3]; first compound 0.3162 µM) was 0.963 and the relative viability ([3]; first compound 1 µM) was 0.868. For the same compound, the relative viability ([4]; first compound 0.01 µM) was 0.873, the relative viability ([4]; first compound 0.03162 µM) was 0.836 and the relative viability ([4]; first compound 0.1 µM) was 0.821. For the same compound, the relative viability ([4]; first compound 0.3162 µM) was 0.838, the relative viability ([4]; first compound 1 µM) was 0.771 and the relative viability ([5]; first compound 0.01 µM) was 1.26. It also gave a relative viability ([5]; first compound 0.1 µM) of 1.1, a relative viability ([5]; first compound 0.3162 µM) of 1.32 and a relative viability ([5]; first compound 1 µM) of 1.17. For the same compound, the relative viability ([6]; first compound 0.01 µM) was 1.04, the relative viability ([6]; first compound 0.03162 µM) was 0.875 and the relative viability ([6]; first compound 0.1 µM) was 0.951. It also gave a relative viability ([6]; first compound 0.3162 µM) of 0.925, a relative viability ([6]; first compound 1 µM) of 0.872 and a relative viability ([7]; first compound 0.03162 µM) of 0.55. The relative viability ([7]; first compound 0.1 µM) was 0.497, the relative viability ([7]; first compound 0.3162 µM) was 0.593 and the relative viability ([7]; first compound 1 µM) was 0.415. It also gave a relative viability ([8]; first compound 0.01 µM) of 1.04, a relative viability ([8]; first compound 0.03162 µM) of 1.02 and a relative viability ([8]; first compound 0.1 µM) of 0.935. The relative viability ([8]; first compound 0.3162 µM) was 1.14, the relative viability ([8]; first compound 1 µM) was 0.873 and the relative viability ([9]; first compound 0.01 µM) was 0.974. For the same compound, the relative viability ([9]; first compound 0.03162 µM) was 1.02, the relative viability ([9]; first compound 0.1 µM) was 1.03 and the relative viability ([9]; first compound 0.3162 µM) was 0.972. It also gave a relative viability ([9]; first compound 1 µM) of 0.843, a relative viability ([10]; first compound 0.01 µM) of 1.04 and a relative viability ([10]; first compound 0.03162 µM) of 0.674. It also gave a relative viability ([10]; first compound 0.1 µM) of 0.997, a relative viability ([10]; first compound 0.3162 µM) of 0.944 and a relative viability ([10]; first compound 1 µM) of 0.726. The relative viability ([11]; first compound 0.01 µM) was 1.08, the relative viability ([11]; first compound 0.03162 µM) was 0.979 and the relative viability ([11]; first compound 0.1 µM) was 0.995. It also gave a relative viability ([11]; first compound 0.3162 µM) of 1.08, a relative viability ([11]; first compound 1 µM) of 0.925 and a relative viability ([12]; first compound 0.01 µM) of 1.11. For the same compound, the relative viability ([12]; first compound 0.03162 µM) was 1.12, the relative viability ([12]; first compound 0.1 µM) was 1.12 and the relative viability ([12]; first compound 0.3162 µM) was 1.1. It also gave a relative viability ([12]; first compound 1 µM) of 1.15, a relative viability ([13]; first compound 0.01 µM) of 0.976 and a relative viability ([13]; first compound 0.03162 µM) of 0.949. It also gave a relative viability ([13]; first compound 0.1 µM) of 1.11, a relative viability ([13]; first compound 0.3162 µM) of 1.01 and a relative viability ([13]; first compound 1 µM) of 0.856. For the same compound, the relative viability ([14]; first compound 0.01 µM) was 0.716, the relative viability ([14]; first compound 0.03162 µM) was 0.691 and the relative viability ([14]; first compound 0.1 µM) was 0.636. For the same compound, the relative viability ([14]; first compound 0.3162 µM) was 0.708, the relative viability ([14]; first compound 1 µM) was 0.685 and the relative viability ([15]; first compound 0.01 µM) was 0.977. The relative viability ([15]; first compound 0.03162 µM) was 0.949, the relative viability ([15]; first compound 0.1 µM) was 1.07 and the relative viability ([15]; first compound 0.3162 µM) was 0.918. The relative viability ([15]; first compound 1 µM) was 0.887, the relative viability ([16]; first compound 0.01 µM) was 0.725 and the relative viability ([16]; first compound 0.03162 µM) was 0.712. For the same compound, the relative viability ([16]; first compound 0.1 µM) was 0.794, the relative viability ([16]; first compound 0.3162 µM) was 0.674 and the relative viability ([16]; first compound 1 µM) was 0.708. The relative viability ([17]; first compound 0.01 µM) was 1.05, the relative viability ([17]; first compound 0.03162 µM) was 1.02 and the relative viability ([17]; first compound 0.1 µM) was 1.08. For the same compound, the relative viability ([17]; first compound 0.3162 µM) was 1.04, the relative viability ([17]; first compound 1 µM) was 1.01 and the relative viability ([18]; first compound 0.01 µM) was 0.99. The relative viability ([18]; first compound 0.03162 µM) was 0.875, the relative viability ([18]; first compound 0.1 µM) was 0.938 and the relative viability ([18]; first compound 0.3162 µM) was 0.982. It also gave a relative viability ([18]; first compound 1 µM) of 0.891, a relative viability ([19]; first compound 0.01 µM) of 0.731 and a relative viability ([19]; first compound 0.03162 µM) of 0.748. The relative viability ([19]; first compound 0.1 µM) was 0.767, the relative viability ([19]; first compound 0.3162 µM) was 0.859 and the relative viability ([19]; first compound 1 µM) was 0.695. It also gave a relative viability ([20]; first compound 0.01 µM) of 0.626, a relative viability ([20]; first compound 0.03162 µM) of 0.441 and a relative viability ([20]; first compound 0.1 µM) of 0.808. The relative viability ([20]; first compound 0.3162 µM) was 0.635, the relative viability ([20]; first compound 1 µM) was 0.432 and the relative viability ([21]; first compound 0.01 µM) was 1.25. The relative viability ([21]; first compound 0.03162 µM) was 1.02, the relative viability ([21]; first compound 0.1 µM) was 1.29 and the relative viability ([21]; first compound 0.3162 µM) was 1.21. For the same compound, the relative viability ([21]; first compound 1 µM) was 0.99.
